Patent US10682372B2, “Intracellular ATP enhancer” (StaGen Co., Ltd., priority 2015, dated 2020)

How the values were obtained:
[1] = Clinical test Phase II: serum uric acid value; format: in vivo, Human
Description: (§1) The following administration test was conducted for 16 Japanese healthy adult males, one subject in Phase I and 15 subjects which divided into Groups of A to E for each groups 3 subjects in phase II.
(§2) After the end of Phase I, administration was performed to three subjects of each of the groups as follows:
(§3) Group A: febuxostat 20 mg twice a day for 14 days;
(§4) Group B: inosine 500 mg twice a day for 14 days;
(§5) Group C: febuxostat 20 mg+inosine 500 mg twice a day for 14 days;
(§6) Group D: febuxostat 20 mg+inosine 1000 mg twice a day for 14 days; and
(§7) Group E: febuxostat 30 mg twice a day for 14 days.

[2] = First administration test: serum uric acid value (uricase-peroxidase method); format: in vivo, Human
Description: For a clinical chemistry automatic analyzer, a dry clinical chemistry analysis measuring unit manufactured by ARKRAY, Inc. was used, and the serum uric acid value was measured by using the uricase-peroxidase method. A first clinical test was conducted by first administering febuxostat at 40 mg/day (single administration of febuxostat), after a while, additionally administering inosine (combined administration of febuxostat and inosine), and gradually increasing the dosage of inosine from 0.5 to 3 g/day. Meanwhile, blood was collected at the timing shown on the horizontal axis of FIG. 2 to measure the serum uric acid value.

[3] = Clinical test Phase II: urinary purine concentration; format: in vivo, Human
[4] = Clinical test Phase II: blood purine concentration; format: in vivo, Human; conditions: for ATP concentration in blood, change: Week 0 to Week 2; for inosine concentration in blood, change: any groups (Groups A to E)
Description: Various purines in peripheral blood were measured according to Reference (1). Briefly, peripheral blood was collected with EDTA, mixed with 500 μL+500 μL ice cold 8% PCA, immediately vortexed for five seconds, and centrifuged at 12,000×g for 10 minutes at 4° C., and the supernatant was stored at −80° C. The sample was dissolve in a gathered state, and 40 μL of 2M K2CO3 in 6 M KOH was added to 650 μL of the solution to precipitate PCA and neutralize the solution at the same time. After this solution was centrifuged at 12,000×g for 10 minutes at 4° C., 160 μL of a mobile phase was added to 40 μL of supernatant and apply to HPLC. The conditions of HPLC were also set according to Reference (1) below. The amounts of purines are expressed in molar quantity contained in 1 L of whole blood.
as §1, §2, §3, §4, §5, §6, §7

[5] = Second administration test: serum uric acid value, single and combined administration; format: in vivo, Human
Description: (1) The subject of administration was the same as Test Example 1.
After a sufficient period had elapsed from completion of Test Example 1, febuxostat was administered again at 40 mg/day to the patient, and the serum uric acid value was measured three days later. Subsequently, febuxostat was discontinued and, after a while, administration of 2 g/day of inosine was started (administered at 1 g each after breakfast and dinner) and was followed by combined use of 2 g/day of inosine and 40 mg of febuxostat (administered at 20 mg each after breakfast and dinner). The serum uric acid value was measured at time points shown on the horizontal axis of FIG. 4.

[6] = Clinical test Phase II: urinary uric acid concentration/creatinine concentration; format: in vivo, Human; conditions: Week 0 to Week 2
Description: Since the urinary uric acid concentration varies with urine volume, a urinary uric acid amount was evaluated by using a urinary uric acid/creatinine value acquired by dividing by urinary creatinine concentration. The measurement method of the uric acid value was the same as Test Example 1.
as §1, §2, §3, §4, §5, §6, §7

[7] = system: model mouse of amyotrophic lateral sclerosis; conditions: model mouse of ALS; cited from earlier work
[8] = system: erythrocytes; conditions: erythrocytes kept at low temperature for 20 to 30 days, one hour after addition of inosine; cited from earlier work
[9] = in vivo; cited from earlier work
[10] = in vivo; cited from earlier work; remark: listed apart in the source
[11] = high-dose administration; cited from earlier work
[12] = Week 0 to Week 2, single administration of febuxostat
[13] = Group A febuxostat 40 mg/day alone
[14] = febuxostat 60 mg/day single administration
[15] = Week 0 to Week 2, single administration of inosine

## Cc1nc(-c2ccc(OCC(C)C)c(C#N)c2)sc1C(=O)O [febuxostat]
[1]; Group A: febuxostat 20 mg twice a day for 14 days
  reduction of serum uric acid value: 2.53 mg/dL
[1]; Group E: febuxostat 30 mg twice a day for 14 days
  reduction of serum uric acid value: 3.93 mg/dL
[1]; Group E: febuxostat 60 mg/day
  serum uric acid value, lowest observed: less than 2 mg/dL
[1]; any of the administration examples of 40 mg/day of febuxostat
  serum uric acid value, lower limit observed: ≥ 2 mg/dL
[2]; febuxostat 40 mg/day single administration, 2014.07.12, 8.4 mg/dL before (2014.07.05)
  serum uric acid value: 4.7 mg/dL
[2]; febuxostat 40 mg/day, 0 g inosine, 2014.08.23
  serum uric acid value: 4.9 mg/dL
[2]; febuxostat 40 mg/day, previous (first) test
  reduction of serum uric acid value: 3.7 mg/dL
[3]; Group A: febuxostat 20 mg twice a day
  maximum concentration of urinary X: 556.0 µM
[3]; Group E: febuxostat 30 mg twice a day
  maximum concentration of urinary X: 867.7 µM
[3]; [12]
  urinary Hx, change: moderate rise
  urinary X concentration, change: significantly increased
[4]; [13]
  Hx (hypoxanthine) concentration in blood, change: unchanged
  X (xanthine) concentration in blood, change: significantly increased
[4]; Group A febuxostat 40 mg/day
  ATP concentration in blood, change: not changed
[4]; Group E febuxostat 60 mg/day
  ATP concentration in blood, change: No certain tendency was observed
[4]
  inosine concentration in blood, change: no rise
[4]; [14]
  Hx (hypoxanthine) concentration in blood, change: slight rise
  X (xanthine) concentration in blood, change: rise
[5]; febuxostat 40 mg/day, remaining share of the increase
  suppression by febuxostat of the serum uric acid increasing action of inosine: 22.4%
[5]; three days from febuxostat 40 mg/day
  reduction of serum uric acid value: 3.4 mg/dL
[5]; three days from febuxostat 40 mg/day (20150515), 8.2 mg/dL before (20150501)
  serum uric acid value: 4.8 mg/dL
[6]; febuxostat alone (Groups A and E)
  urinary uric acid/creatinine, change: reduced
[7]
  disease progression of amyotrophic lateral sclerosis: inhibits disease progression

## OC[C@H]1O[C@@H](n2cnc3c(O)ncnc32)[C@H](O)[C@@H]1O [inosine]
[1]; Group B: inosine 500 mg twice a day for 14 days
  serum uric acid value, highest observed: up to 8.1 mg/dL
[1]; Group B: inosine 1 g per day, without febuxostat
  rise of serum uric acid value on average: 2.57 mg/dL
[8]
  ATP in erythrocytes: ATP increased
[3]; Group B: inosine 500 mg twice a day
  maximum concentration of urinary X: 61.9 µM
[3]; [15]
  urinary Hx, change: no rise
  urinary X, change: no rise
[9]
  symptoms of multiple sclerosis: alleviates symptoms
[4]; Group B inosine 1 g/day alone
  Hx (hypoxanthine) concentration in blood, change: neither Hx nor X changed
  X (xanthine) concentration in blood, change: neither Hx nor X changed
[4]; Group B inosine 1 g/day
  ATP concentration in blood, change: not changed
[4]
  inosine concentration in blood, change: no rise
[5]; inosine 2 g/day (1 g after breakfast and dinner), six days later, 8.3 mg/dL before
  serum uric acid value: 13.4 mg/dL
[5]; inosine 2 g/day alone
  rise of serum uric acid value: 5.1 mg/dL
[5]; inosine alone
  rise of serum uric acid value per 1 g/day administration of inosine: 2.55 mg/dL
[10]
  symptoms of Parkinson's disease: alleviates symptoms
[6]; Group B inosine alone
  urinary uric acid/creatinine, change: significantly increased

## Oc1ncnc2[nH]ncc12 [allopurinol]
[11]
  symptoms of chronic stable angina: suppressed
[7]
  disease progression of amyotrophic lateral sclerosis: did not inhibit the disease progression
